Measurements reported in patent publication US20250195521A1 (Revolution Medicines, Inc., priority 2020, published 2025).
Where two headings read alike, the source gives them in different places.

How the values were obtained:
[1] = 18-membered ring
[2] = test system: NCI-H358 (K-Ras G12C); experiment: CellTiter-Glo cell viability assay, NCI-H358; format: cell-based, human; conditions: Homo sapiens, NCI-H358, 120 h, 5-day treatment; read-out: H358 Cell Viability assay data (K-Ras G12C, IC50)
Outline: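 NCI-H358 cells were treated with test compounds dispensed directly into the assay wells and incubated until day 5. Viability was then read by CellTiter-Glo luminescence after a ~30 min room-temperature equilibration, normalized to the DMSO average (×100), and fit with a four-parameter logistic curve.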

[3] = biological target: KRAS G13D binding to BRAF RBD (Homo sapiens (Human), UniProt P01116+P62937, G13D); experiment: Ras-Raf disruption/FRET/MOA assay, KRAS G13D; format: biochemical
Source text: (§1) Note—The following protocol describes a procedure for monitoring disruption of K-Ras G12C(GMP-PNP) binding to BRAF^RBD by a compound of the invention. This protocol may also be executed substituting other Ras proteins or nucleotides.
(§2) The purpose of this biochemical assay was to measure the ability of test compounds to facilitate ternary complex formation between a nucleotide-loaded K-Ras isoform and Cyclophilin A; the resulting ternary complex disrupts binding to a BRAF^RBD construct, inhibiting K-Ras signaling through a RAF effector. Data is reported as IC50 values.
(§3) Compound was present in plate wells as a 10-point 3-fold dilution series starting at a final concentration of 30 μM. After incubation at 25° C. for 3 hours, a mixture of Anti-His Eu—W1024 and anti-GST allophycocyanin was then added to assay sample wells at final concentrations of 10 nM and 50 nM, respectively, and the reaction incubated for an additional 1.5 hours. […] Compounds that facilitate disruption of a K-Ras: RAF complex were identified as those eliciting a decrease in the TR-FRET ratio relative to DMSO control wells.

[4] = biological target: NRAS G12C binding to BRAF RBD (Homo sapiens (Human), UniProt P01111+P62937, G12C); experiment: Ras-Raf disruption/FRET/MOA assay, NRAS G12C; format: biochemical
Source text: as §1, §2, §3

[5] = biological target: K-Ras G12C(GMP-PNP) binding to BRAF RBD (Homo sapiens (Human), UniProt P01116+P62937, G12C); experiment: Disruption of BRAF RBD interaction with K-Ras (FRET / MOA assay), K-Ras G12C; format: biochemical; conditions: read-out: KRAS G12C FRET IC50
Outline: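 First, test compounds in a 10-point 3-fold series (30 μM final top) were incubated for 3 hours at 25° C with nucleotide-loaded Ras, cyclophilin A and a BRAF RBD construct. Next, Eu anti-His and allophycocyanin anti-GST detection reagents were added for 1.5 hours. Finally, IC50s were derived from loss of TR-FRET signal against DMSO.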

[6] = test system: Capan-1 cells (K-Ras G12V); experiment: CellTiter-Glo cell viability, Capan-1; format: cell-based, human; conditions: Homo sapiens, CAPAN-1, 120 h, K-Ras G12V, 5-day treatment; read-out: Capan-1 Cell Viability IC50
Outline: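 Compounds were dispensed directly onto seeded cells and incubated until day 5, then plates were equilibrated at room temperature for about 30 min before CellTiter-Glo luminescence readout. Signals were normalized as (sample/average DMSO)×100 and fitted with a four-parameter logistic model.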

[7] = biological target: KRAS G12S binding to BRAF RBD (Homo sapiens (Human), UniProt P01116+P62937, G12S); experiment: Ras-Raf disruption/FRET/MOA assay, KRAS G12S; format: biochemical
Source text: as §1, §2, §3

[8] = biological target: KRAS WT binding to BRAF RBD (Homo sapiens (Human), UniProt P01116+P62937); experiment: Ras-Raf disruption/FRET/MOA assay, KRAS WT; format: biochemical
Source text: Disruption of B-Raf Ras-binding Domain (BRAF^RBD) Interaction with K-Ras by Compounds of the Invention (also called a FRET assay or an MOA assay)
as §1, §2
as §3, with “In assay buffer containing 25 mM HEPES pH 7.3, 0.002% Tween20, 0.1% BSA, 100 mM NaCl and 5 mM MgCl2, tagless Cyclophilin A, His6-K-Ras-GMPPNP, and GST-BRAF^RBD were combined in a 384-well assay plate at final concentrations of 25 μM, 12.5 nM and 50 nM, respectively. Compound was” for “Compound was”

[9] = test system: K-Ras G12C (NCI-H358 cells); experiment: Potency assay: pERK in NCI-H358 cells; format: cell-based, human; conditions: Homo sapiens; NCI-H358 cells, 4 hours; read-out: pERK EC50 (H358 KRAS G12C)
Outline: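 Cells plated the day before were exposed for 4 h at 37° C, 5% CO2 to a 10-point, 3-fold DMSO dilution series (10 mM top stock), in duplicate. Phospho-ERK was read by AlphaLISA SureFire Ultra or by In-Cell Western with DRAQ5 DNA stain, and IC50 came from a 4-parameter sigmoidal fit.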

Chain of KRAS WT binding to BRAF RBD (P01116 other isoform, or with tags, fused parts or gaps): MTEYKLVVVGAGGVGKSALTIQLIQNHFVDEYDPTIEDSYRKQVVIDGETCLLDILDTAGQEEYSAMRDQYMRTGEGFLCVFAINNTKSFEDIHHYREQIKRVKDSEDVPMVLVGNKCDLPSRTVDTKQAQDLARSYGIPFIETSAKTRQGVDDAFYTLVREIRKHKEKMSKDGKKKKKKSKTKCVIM
Chain of KRAS WT binding to BRAF RBD (P62937 whole entry, the tested form may be a part): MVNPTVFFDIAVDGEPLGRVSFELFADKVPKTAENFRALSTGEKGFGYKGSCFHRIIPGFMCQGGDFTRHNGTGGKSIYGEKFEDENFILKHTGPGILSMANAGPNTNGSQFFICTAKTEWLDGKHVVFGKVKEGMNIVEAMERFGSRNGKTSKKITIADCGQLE
Chain of KRAS G12S binding to BRAF RBD (P01116 other isoform, or with tags, fused parts or gaps G12S): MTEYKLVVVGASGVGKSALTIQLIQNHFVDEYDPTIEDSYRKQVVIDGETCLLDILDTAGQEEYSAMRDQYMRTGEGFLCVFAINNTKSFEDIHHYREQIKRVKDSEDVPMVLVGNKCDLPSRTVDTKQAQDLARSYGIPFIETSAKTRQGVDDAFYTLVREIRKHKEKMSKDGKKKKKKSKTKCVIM
Chain of KRAS G12S binding to BRAF RBD (P62937 whole entry): as the sequence (P62937 whole entry, the tested form may be a part) above
Chain of K-Ras G12C(GMP-PNP) binding to BRAF RBD (P01116 other isoform, or with tags, fused parts or gaps G12C): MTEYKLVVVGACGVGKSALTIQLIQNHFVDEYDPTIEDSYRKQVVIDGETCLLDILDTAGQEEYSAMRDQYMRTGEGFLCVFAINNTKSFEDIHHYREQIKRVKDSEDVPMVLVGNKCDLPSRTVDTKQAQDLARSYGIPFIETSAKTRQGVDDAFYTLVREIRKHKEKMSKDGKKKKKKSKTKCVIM
Chain of K-Ras G12C(GMP-PNP) binding to BRAF RBD (P62937 whole entry): as the sequence (P62937 whole entry, the tested form may be a part) above
Chain of KRAS G13D binding to BRAF RBD (P01116 other isoform, or with tags, fused parts or gaps G13D): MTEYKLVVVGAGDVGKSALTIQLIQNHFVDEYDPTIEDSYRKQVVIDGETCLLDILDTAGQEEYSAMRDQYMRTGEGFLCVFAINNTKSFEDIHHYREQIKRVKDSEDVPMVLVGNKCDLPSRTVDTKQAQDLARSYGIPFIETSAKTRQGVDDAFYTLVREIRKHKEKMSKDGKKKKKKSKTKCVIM
Chain of KRAS G13D binding to BRAF RBD (P62937 whole entry): as the sequence (P62937 whole entry, the tested form may be a part) above
Chain of NRAS G12C binding to BRAF RBD (P01111 whole entry G12C): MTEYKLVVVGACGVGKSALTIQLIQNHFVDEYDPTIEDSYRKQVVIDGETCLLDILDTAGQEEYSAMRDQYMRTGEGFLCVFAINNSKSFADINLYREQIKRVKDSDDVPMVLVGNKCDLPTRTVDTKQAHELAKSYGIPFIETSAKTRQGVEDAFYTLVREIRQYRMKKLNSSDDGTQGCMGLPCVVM
Chain of NRAS G12C binding to BRAF RBD (P62937 whole entry): as the sequence (P62937 whole entry, the tested form may be a part) above

IC50 [2] [nM] | IC50 [3] [nM] | IC50 [4] [nM] | IC50 [5] [nM] | SMILES | further results
 |  |  |  | CCn1c(-c2cccnc2[C@H](C)OC)c2c3cc(ccc31)-c1csc(n1)C[C@H](NC(=O)OC(C)(C)C)C(=O)N1CCC[C@H](N1)C(=O)OCC(C)(C)C2 | ring closure, isolated yield ([1]; from CCn1c(-c2cccnc2[C@H](C)OC)c(CC(C)(C)CO)c2cc(-c3csc(C[C@H](NC(=O)OC(C)(C)C)C(=O)N4CCC[C@@H](C(=O)O)N4)n3)ccc21, ester bond, EDCI/HOBt/DIEA, DCM, 12.65 mM, 16.0 h): 81.1%
 |  |  |  | CCn1c(-c2cccnc2[C@H](C)OC)c2c3cc(ccc31)-c1csc(n1)C[C@H](NC(=O)OC(C)(C)C)C(=O)N1CC[C@H](C)[C@H](N1)C(=O)OCC(C)(C)C2 | ring closure, isolated yield ([1]; from CCn1c(-c2cccnc2[C@H](C)OC)c(CC(C)(C)COC(=O)[C@H]2NN(C(=O)[C@H](Cc3nc(Br)cs3)NC(=O)OC(C)(C)C)CC[C@@H]2C)c2cc(B3OC(C)(C)C(C)(C)O3)ccc21, cc_pd bond, Pd(DtBPF)Cl2/K3PO4, dioxane/H2O 5:1, 17.5 mM, 60.0 °C, 1.0 h): 44.7%
 |  |  |  | CCn1c(-c2cccnc2[C@H](C)OC)c2c3cc(ccc31)N1CCC[C@@H](C[C@H](NC(=O)OCc3ccccc3)C(=O)N3CCC[C@H](N3)C(=O)OCC(C)(C)C2)C1 | ring closure, isolated yield ([1]; from CCn1c(-c2cccnc2[C@H](C)OC)c(CC(C)(C)CO)c2cc(N3CCC[C@@H](C[C@H](NC(=O)OCc4ccccc4)C(=O)N4CCC[C@@H](C(=O)O)N4)C3)ccc21, ester bond, EDCI/HOBt/DIEA, DCM, 36.7 mM, 25.0 °C, 6.0 h): 36%
100 to 1000 | > 10000 | 1000 to 10000 |  | C=CC(=O)N1CC[C@H](C(=O)N(C)[C@H](C(=O)N[C@H]2Cc3cc(O)cc(c3)-c3ccc4c(c3)c(c(-c3cccc(CN(C)C)c3)n4CC)CC(C)(C)COC(=O)[C@@H]3CCCN(N3)C2=O)C(C)C)C1 [Compound A106] | 
 | > 10000 | > 10000 | > 10000 | C=CC(=O)N1CC[C@H](C(=O)N(C)[C@H](C(=O)N[C@H]2Cc3cccc(c3)-c3ccc4c(c3)c(c(-c3cccnc3[C@H](C)OC)n4CC)CC(C)(C)COC(=O)[C@@H]3CCCN(N3)C2=O)C(C)C)C1 [Compound A114] | 
> 10000 | > 10000 | 100 to 1000 |  | C=CC(=O)N1CC[C@H](C(=O)N(C)[C@H](C(=O)N[C@H]2Cc3cc(O)cc(c3)-c3ccc4c(c3)c(c(-c3cccnc3COC)n4CC)CC(C)(C)COC(=O)[C@@H]3CCCN(N3)C2=O)C(C)C)C1 [Compound A137] | 
10 to 100 | 100 to 1000 | 100 to 1000 | 10 to 100 | C/C=C/S(=O)(=O)N1CC[C@H](C(=O)N(C)[C@H](C(=O)N[C@H]2Cc3cc(O)cc(c3)-c3ccc4c(c3)c(c(-c3ccncc3[C@H](C)OC)n4CC)CC(C)(C)COC(=O)[C@@H]3CCCN(N3)C2=O)C(C)C)C1 [Compound A280] | EC50 [9]: < 5000 nM; IC50 [8]: 10 to 100 nM
> 10000 | > 10000 | > 10000 | > 10000 | C=CC(=O)N1CC[C@H](C(=O)N(C)[C@H](C(=O)NC2C[C@@H]3CN(CCO3)c3ccc4c(c3)c(c(-c3cccnc3COC)n4CC)CC(C)(C)COC(=O)[C@@H]3CCCN(N3)C2=O)C(C)C)C1 (stereo partly drawn) [Compound A318] | 
< 10 |  |  |  | CCn1c(-c2cccnc2[C@H](C)OC)c2c3cc(ccc31)-c1csc(n1)C[C@H](NC(=O)[C@H](C(C)C)N(C)C(=O)N1CC(C#N)C1)C(=O)N1CCC[C@H](N1)C(=O)OCC(C)(C)C2 [Compound A382] | IC50 [7]: 10 to 100 nM; IC50 [8]: 10 to 100 nM
< 10 | 100 to 1000 | 10 to 100 | 10 to 100 | C=CC(=O)N1CC[C@H](C(=O)N(C)[C@H](C(=O)N[C@H]2Cc3csc(n3)-c3ccc4c(c3)c(c(-c3cc(N5CCN(C)CC5)cnc3[C@H](C)OC)n4CC(C)(F)F)CC(C)(C)COC(=O)[C@@H]3CCCN(N3)C2=O)C(C)C)C1 [Compound A410] | EC50 [9]: < 5000 nM
< 10 | 1000 to 10000 | 10 to 100 | 10 to 100 | CCn1c(-c2cccnc2[C@H](C)OC)c2c3cc(ccc31)-c1cc(C(F)F)cc(n1)C[C@H](NC(=O)[C@H](C1CCCC1)N(C)C(=O)[C@H]1CCN(C(=O)C#CC(C)(C)N3CCC3)C1)C(=O)N1CCC[C@H](N1)C(=O)OCC(C)(C)C2 [Compound A456] | 
 | > 10000 | 100 to 1000 |  | CCn1c(-c2cccnc2[C@H](C)OC)c2c3cc(ccc31)-c1cccc(c1)C[C@H](NC(=O)[C@H](C(C)C)N(C)C(=O)[C@H]1CCN(C(=O)C#CC3CCO3)C1)C(=O)N1CC(Br)C[C@H](N1)C(=O)OCC(C)(C)C2 (stereo partly drawn) [Compound A508] | 
< 10 | 1000 to 10000 | 100 to 1000 | 100 to 1000 | CC#CC(=O)N1CC[C@]2(CCC([C@H](C(=O)N[C@H]3Cc4nc(cs4)-c4ccc5c(c4)c(c(-c4cccnc4[C@H](C)OC)n5CC)CC(C)(C)COC(=O)[C@@H]4CCCN(N4)C3=O)C(C)C)C2=O)C1 (stereo partly drawn) [Compound A511] | 
< 10 |  |  |  | CCn1c(-c2cc(C3CCN(C)CC3)cnc2[C@H](C)OC)c2c3cc(ccc31)-c1cc(O)cc(c1)C[C@H](NC(=O)[C@H](C(C)C)N(C)C(=O)[C@@H]1OCC[C@@H]1c1ccccc1)C(=O)N1CCC[C@H](N1)C(=O)OCC(C)(C)C2 [Compound A577] | EC50 [9]: < 5000 nM; IC50 [7]: 10 to 100 nM
< 10 |  |  | 10 to 100 | CCn1c(-c2cc(N3CCN(C)CC3)cnc2[C@H](C)OC)c2c3cc(ccc31)-c1cc(O)cc(c1)C[C@H](NC(=O)[C@H](C(C)C)N(C)C(=O)[C@@H]1OCC[C@@H]1c1ccccc1)C(=O)N1CCC[C@H](N1)C(=O)OCC(C)(C)C2 [Compound A594] | EC50 [9]: < 5000 nM; IC50 [8]: 10 to 100 nM

SMILES | IC50 [2] [nM] | IC50 [3] [nM] | IC50 [4] [nM] | IC50 [5] [nM] | further results
CC#CC(=O)N1CC[C@H](C(=O)N(C)[C@H](C(=O)N[C@H]2Cc3cc(O)cc(c3)-c3ccc4c(c3)c(c(-c3cncnc3)n4CC)CC(C)(C)COC(=O)[C@@H]3CCCN(N3)C2=O)C(C)C)C1 [Compound A169] | 100 to 1000 | > 10000 | 100 to 1000 | 100 to 1000 | 
CCn1c(-c2cnccc2COC)c2c3cc(ccc31)-c1cc(O)cc(c1)C[C@H](NC(=O)[C@H](C(C)C)N(C)C(=O)O[C@H]1CCOC1)C(=O)N1CCC[C@H](N1)C(=O)OCC(C)(C)C2 [Compound A260] | < 10 |  |  | 10 to 100 | IC50 [6]: 1000 to 10000 nM; IC50 [7]: 10 to 100 nM; IC50 [8]: 10 to 100 nM
CCn1c(-c2cccnc2[C@H](C)OC)c2c3cc(ccc31)-c1cccc(c1)C[C@H](NC(=O)[C@H](C(C)C)N(C)C(=O)[C@H]1CCN(C(=O)C#C[C@@H]3CC(F)(F)CN3C)C1)C(=O)N1CCC[C@H](N1)C(=O)OCC(C)(C)C2 [Compound A526] | < 10 | > 10000 | 10 to 100 | 10 to 100 | 
